Data as given in US5688787A, “Substituted β-lactam compounds useful as hypochlesterolemic agents and processes for the preparation thereof” (priority 1996, dated 1997).
Read-outs that look alike come from different tables or passages of the source.

Experiments:
[1] = system: Hyperlipidemic Hamster; assay: In Vivo Assay of Hypolipidemic Agents Using the Hyperlipidemic Hamster; conditions: Mesocricetus auratus, po, 168 h, 7 days, percent change versus control, negative = lowering; for change in vivo at 5 mg/kg: 5 mg/kg once daily oral; for change in vivo at 10 mg/kg: 10 mg/kg once daily oral; for change in vivo at 50 mg/kg: 50 mg/kg once daily oral; for change in vivo at 25 mg/kg: 25 mg/kg once daily oral; for change in vivo at 85 mg/kg: 85 mg/kg once daily oral
In short: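 Test compound in corn oil was given orally once daily for seven days, starting with a 0.5% cholesterol diet, to groups of six hamsters; corn oil alone served as control. Plasma and hepatic lipids were analysed after decapitation. Results are expressed as percent change relative to control.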

[2] = target: T1, ACAT (Rattus norvegicus, UniProt Q7TQM4); assay: ACAT Assay (in vitro); type: biochemical; conditions: for inhibition at 10 µM: Conc. 10 µM, negative = apparent stimulation, read-out: ACAT (in vitro) % Inhib.; for IC50: rat liver microsomes, read-out: ACAT (in vitro) IC50
T1 construct: Rat liver microsomes are used as the source of ACAT; from tissue; host or cells: rat liver microsomes
T1 sequence (Q7TQM4 1-524): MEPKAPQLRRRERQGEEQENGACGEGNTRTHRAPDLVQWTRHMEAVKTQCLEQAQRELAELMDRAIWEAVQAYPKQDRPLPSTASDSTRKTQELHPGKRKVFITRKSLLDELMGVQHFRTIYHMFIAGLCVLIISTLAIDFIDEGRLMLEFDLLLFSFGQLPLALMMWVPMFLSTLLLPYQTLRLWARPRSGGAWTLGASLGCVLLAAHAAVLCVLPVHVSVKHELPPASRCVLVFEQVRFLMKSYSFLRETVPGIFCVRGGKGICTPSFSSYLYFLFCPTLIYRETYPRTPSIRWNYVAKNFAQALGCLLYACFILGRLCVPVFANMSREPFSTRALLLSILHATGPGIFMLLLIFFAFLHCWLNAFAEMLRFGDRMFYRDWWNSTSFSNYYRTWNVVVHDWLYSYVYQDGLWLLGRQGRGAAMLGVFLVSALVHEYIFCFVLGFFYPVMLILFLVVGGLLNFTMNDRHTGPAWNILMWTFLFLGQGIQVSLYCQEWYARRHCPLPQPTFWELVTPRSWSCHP

[3] = read-out: % Reduction (in vivo) Cholest. Esters
[4] = read-out: % Reduction (in vivo) Serum Cholest.

Structure (SMILES) | inhibition at 10 µM [2] [%] | change in vivo at 50 mg/kg [1, 3] [%] | change in vivo at 50 mg/kg [1, 4] [%] | also measured
COc1ccc(N2C(=O)[C@@H](CCCc3ccccc3)[C@H]2c2ccc(O)cc2)cc1 (relative stereo) [Example 1L] | 20 | -75 | -31 | change in vivo at 5 mg/kg [1, 3]: -30%; change in vivo at 5 mg/kg [1, 4]: -25%; change in vivo at 10 mg/kg [1, 3]: -34%; change in vivo at 10 mg/kg [1, 4]: -22%
COc1ccc(C=C[C@H]2[C@H](CCCc3ccccc3)C(=O)N2c2ccc(OC)cc2)cc1 (relative stereo) [Example 1M] | 80 | – | – | change in vivo at 25 mg/kg [1, 3]: -31%; change in vivo at 25 mg/kg [1, 4]: -11%; IC50 [2]: 7 µM
COc1ccc(N2C(=O)[C@@H](CCCc3ccccc3)[C@H]2c2cccc(OC)c2)cc1 (relative stereo) [Example 1P] | 39 | -54 | -19 | –
CCCCCCCCCC[C@H]1C(=O)N(c2ccc(OC)cc2)[C@H]1c1ccccc1 (relative stereo) [Example 1S] | -19 | – | – | change in vivo at 85 mg/kg [1, 3]: -32%; change in vivo at 85 mg/kg [1, 4]: 0%
CCCCCCCCCC[C@@H]1C(=O)N(c2ccc(OC)cc2)[C@H]1c1ccccc1 (relative stereo) [Example 1T] | -11 | 0 | 0 | –
COc1ccc(N2C(=O)[C@@](Cc3ccccc3)(c3ccccc3)[C@@H]2c2ccccc2)cc1 (relative stereo) [Example 1X] | 9 | 0 | -12 | –
CC[C@@]1(c2ccccc2)C(=O)N(c2ccc(OC)cc2)[C@H]1c1ccccc1 (relative stereo) [Example 1Z] | -15 | -39 | -15 | –
COc1ccc(N2C(=O)[C@](CCCc3ccccc3)(c3ccccc3)[C@@H]2c2ccccc2)cc1 (relative stereo) [Example 3B] | 84 | -16 | -11 | –
COc1ccc(N2C(=O)[C@](C)(CCc3ccccc3)[C@@H]2c2ccccc2)cc1 (relative stereo) [Example 3I] | 43 | 0 | -9 | –

More lines, main results first:

inhibition at 10 µM [2] [%] | Structure (SMILES) | change in vivo at 50 mg/kg [1, 3] [%] | change in vivo at 50 mg/kg [1, 4] [%] | also measured
33 | CC[C@@]1(CCCc2ccccc2)C(=O)N(c2ccc(OC)cc2)[C@H]1c1ccccc1 (relative stereo) [Example 3A] | -29 | -12 | –
42 | CC[C@@]1(CCCc2ccccc2)C(=O)N(c2c(OC)cc(OC)cc2OC)[C@H]1c1ccccc1 (relative stereo) [Example 3D] | 0 | 0 | IC50 [2]: 12 µM
-24 | CC[C@]1(CCCc2ccccc2)C(=O)N(c2ccc(OC)cc2)[C@H]1c1ccccc1 (relative stereo) [Example 3E] | 0 | 0 | –
82 | CC[C@]1(CCCc2ccccc2)C(=O)N(c2c(OC)cc(OC)cc2OC)[C@H]1c1ccccc1 (relative stereo) [Example 3F] | -31 | 0 | –
74 | CC[C@@]1(CCCc2ccccc2)C(=O)N(c2ccc(OC)cc2)[C@H]1C=Cc1ccccc1 (relative stereo) [Example 3G] | 0 | 9 | IC50 [2]: 5 µM
66 | CC[C@]1(CCc2ccccc2)C(=O)N(c2ccc(OC)cc2)[C@H]1c1ccccc1 (relative stereo) [Example 3H] | 31 | -10 | –
45 | COc1ccc(N2C(=O)[C@@](C)(CCCc3ccccc3)[C@@H]2c2ccccc2)cc1 (relative stereo) [Example 3J] | -16 | 0 | –
19 | COc1ccc(N2C(=O)[C@@](C)(CCCCc3ccccc3)[C@@H]2c2ccccc2)cc1 (relative stereo) [Example 3K] | 0 | 0 | –
